Results: patent US20250270159A1, “1-(CYCLOBUTANEMETHYLIDENE)-2, 4, 5-TRIMETHOXYBENZENE COMPOUND AND PREPARATION METHOD AND USE THEREOF” (CHENGDU XINRUI TAIKANG TECHNOLOGY CO., LTD., priority 2023, published 2025)

Key:
[1] = tested on: Parkinson's disease (PD) mice, 6-OHDA method; assay: 6-OHDA Parkinson's disease mice, rod-climbing experiment; type: in vivo, C57 mice; details: Group D, CTMB 20 mg/kg ip
Description: (§1) The mice were randomly divided into a sham operation group (group S, given a blank emulsion with a volume equal to that of the administered group), a model group (group M, given a blank emulsion with a volume equal to that of the administered group), a CTMB group (20 mg/kg, group D), and a levodopa group (levodopa: benserazide hydrochloride=4:1, 12 mg/kg, group L), each group included 10-12 mice, and all of them were administered intraperitoneally.
Preoperatively, mice were fasted for 12 h, and mice were anesthetized with 4% isoflurane induction and maintained with 1.5% isoflurane. The mice were subsequently immobilized on a brain stereotaxic apparatus. The bregma and lambda points were exposed by gently wiping the cranial surface with a cotton swab after cutting the scalp. The stereotaxic apparatus was adjusted to align the heights of the bregma and lambda points, thereby leveling the skull. The bregma point was designated as the origin, the coordinates where the injection site was located were located, and the drill was used to drill a small hole in the skull above the injection site.
6-OHDA (12.5 μg/μL) was injected into the striatum region (AP+0.5 mm; ML+2.00 mm; DV-3.00 mm and-2.00 mm) of the mice, and 1 μL 6-OHDA was injected into each of the two points at a rate of 0.5 μL/min. The needle was left in place for 3 min after the injection was completed, and then the injection needle was lifted, and the scalp of the mice was sutured and disinfected. The sham operation group was injected with an equal volume of saline containing 0.02% ascorbic acid, and other operations were performed as above. After the procedure, the mice were placed in the cage at an appropriate temperature. After awakening from anesthesia, the mice were kept normally.
The rod-climbing experiment: the rod-climbing experiment was mainly used to test the limb movement ability of mice and to assess the symptoms of motor delay. This experiment evaluated the ability of mice to grasp and maneuver on a pole to descend to their home cage. A cork ball was fixed to an iron pole with a diameter of 1 cm and a length of 65 cm. The head of the mice was put down on the top of the pole, and the mice usually naturally descended down along the pole to return to their cage. The time for the mice to descend to the bottom was recorded. Results were averaged over 3 consecutive measurements.
The motor function of the mice was comprehensively assessed using the rod-climbing experiment and the hanging experiment at 1, 2, 3, and 4 weeks after drug administration.

[2] = tested on: neurons in the substantia nigra region of the midbrain of PD mice; assay: Niehl's staining, number of neuronal Niehl's bodies in substantia nigra of PD mice; type: in vivo, C57 mice; details: Group D, CTMB 20 mg/kg ip, after 4 weeks of administration
Description: as §1
After completing the evaluation of motor function after 4 weeks of drug administration, the mice were deeply anesthetized, perfused with 20 mL of saline and 20 mL of 4% paraformaldehyde via the heart, and the brains were rapidly severed and extracted from the head, which were then preserved and fixed in 4% paraformaldehyde for 72 h after removal, and then embedded with paraffin to prepare the slices with a thickness of 4 μm for subsequent pathological and histological studies.
Niehl's staining was used to identify Niehl's bodies in neuronal cells.

[3] = tested on: ischemic stroke induced by the filament technique in rats; assay: Acute phase of ischemic stroke induced by the filament technique (MCAO), short-term neurological deficit score; type: in vivo; details: for mNSS score / Garcia score: 24 h after MCAO modeling; for mNSS score: scale 0-18, higher worse; for Garcia score: scale 3-18, lower worse
Description: Zea Longa score was used to determine whether the modeling was successful after 2 h of MCAO surgery, and rats with successful modeling were taken and randomly grouped for administering drugs.
The rats were randomly divided into a sham operation group (Sham group, given a blank emulsion with a volume equal to that of the high-dose CTMB group), a model group (Vehicle group, given a blank emulsion with a volume equal to that of the high-dose CTMB group), a low-dose CTMB group (CTMB-L group, 10 mg/kg), a high-dose CTMB group (CTMB-H group, 20 mg/kg), and an edaravone dexborneol injection concentrated solution group (EDB group, commercially available, 3 mg/kg). 10 rats were included in each group, which were administered by intraperitoneal injection. It should be noted that in the experiment, the mode of administration for rats was intraperitoneal injection, and a ratio of the effective dose of CTMB, the active ingredient in the emulsion injection, to the unit mass of the human body was within a range of 0.2 mg-4.0 mg/kg, which referred to the ratio of the effective dose of CTMB, the active ingredient in the emulsion injection, to the unit mass of the human body during intravenous infusion, which was extrapolated from the effective dose of the rats. Considering the different bioavailability, peak concentration, and peak time of the drug due to different species and different modes of administration, the effective dose of the active ingredient CTMB in the emulsion injection to the unit mass of human body was finally determined to be 0.2 mg-4.0 mg/kg through conversion.
The rats were fasted for 12 h before procedure, and the rats were anesthetized with 10% chloral hydrate (350 mg/kg, i.p.). The rats were fixed in the supine position, and the body temperature was maintained at about 37° C. For neck preparation, a median neck incision was made, the muscle and fascia were separated along the inner edge of the sternocleidomastoid muscle to expose the right side, the common carotid artery (CCA), external carotid artery (ECA), and internal carotid artery (ICA) were separated bluntly, and the lines were disposed of proximally in the CCA proximal end, ICA, and ECA for backup. The CCA proximal end and ECA were ligatured, and an arterial clip was used to temporarily close the ICA, then a small hole was poked at a position of CCA having about 4 mm from the bifurcation with a needle. The filament was inserted into the ICA through the CCA, the arterial clipped on ICA was loosened, and the filament was slowly advanced. When the mark on the filament reached the bifurcation and a slight resistance was felt, the thin wire at ICA was tightened, and saline was used to clean the wound and then suture was performed. The sham procedure was the same as the experimental group except that no filament was inserted. […]
Referring to the Zea Longa Neurologic Function Score (Longa EZ, Weinstein PR, Carlson S, Cummins R. Reversible middle cerebral artery occlusion without craniectomy in rats. Stroke. 1989 January; 20(1):84-91. doi: 10.1161/01.str.20.1.84.), rats were scored after 2 h of procedure when they were awake from anesthesia. […]
The neural function of the rats was comprehensively evaluated after 24 h of modeling using the modified mNSS score and Garcia score, and mNSS scoring criteria was shown in Table 3 and Garcia scoring criteria was shown in Table 4. The rats were evaluated for locomotion, sensation, and climbing, and symmetry of limbs. […]

## COc1cc(OC)c(OC)cc1C=C1CCC1 [CTMB, 1-(cyclobutylidenemethyl)-2,4,5-trimethoxybenzene]
[1]
  Rod-climbing time, 1 week of administration: 6.38 ± 1.22 s
  Rod-climbing time, 2 weeks of administration: 6.41 ± 1.12 s
  Rod-climbing time, 3 weeks of administration: 5.50 ± 1.02^#, * s
  Rod-climbing time, 4 weeks of administration: 5.28 ± 0.92^#, * s
[1]; baseline 2 weeks after 6-OHDA
  Rod-climbing time, Before administration: 9.29 ± 1.92 s
[2]
  Number of Niehl's bodies: 55.5 ± 4.0
[3]; 10 and 20 mg/kg ip, MCAO rats, acute phase test
  toxic side effects associated with administration: No toxic side effects
[3]; CTMB-H 20 mg/kg ip
  mNSS score: 6.65 ± 2.30^##, **
  Garcia score: 10.05 ± 1.81^##, **
[3]; CTMB-L 10 mg/kg ip
  mNSS score: 6.88 ± 2.26^##, **
  Garcia score: 9.65 ± 1.02^##, *
